Measured values taken from article PMC7473772 (eLife, 2020).
Values joined by “and” are separate entries in the source; they are usually repeats but may differ in a detail not shown here. Identical values can stand only once. Counter-ions that a name gives are not always drawn. Like-named read-outs stand apart in the source and are kept apart here. Marks after values point to notes of the source that are not given here.

Columns and labels:
T. b. brucei 2T1 = test: Drug sensitivity assay (resazurin); format: cell-based; conditions: Trypanosoma brucei, 48 h drug + 24 h resazurin, read-out: EC50 control 2T1 AVG
Procedure: The tbaqp2/tbaqp3 null cells ([Baker et al., 2012]) and tbaqp1-2-3 null cells ([Jeacock et al., 2017]) (both obtained from David Horn, University of Dundee, UK) are derived from the 2T1 strain of T. b. brucei ([Alsford and Horn, 2008]). The CRK12 RNAi cell line^28 was obtained from Dr Tansy Hammarton (University of Glasgow, UK) and is also based on the 2T1 cell line; RNAi expression was induced with 1 µg/ml tetracycline in the medium. All experiments were performed with bloodstream form trypanosomes grown in vitro in HMI-11 medium as described ([Wallace et al., 2002]) at 37°C in a 5% CO2 atmosphere. Cultures were routinely maintained in 10 ml of this medium, being seeded at 5 × 10^4 cells/ml and passed to fresh medium at reaching approximately 3 × 10^6 cells/ml after 48 hr. For transport experiments 150 or 200 ml of culture was seeded at the same density in large flasks and incubated until the culture reached late-log phase.
Drug sensitivity assays for T. b. brucei bloodstream forms used the cell viability dye resazurin (Sigma) and were performed exactly as described ([Wallace et al., 2002]; [Bridges et al., 2007]) in 96-well plates with doubling dilutions of test compound, starting at 100 µM, over 2 rows of the plate (23 dilutions plus no-drug control). Incubation time with test compound was 48 hr (37°C/5% CO2), followed by an additional 24 hr in the presence of the dye.

tbaqp2 null (AQP2-KO) = test: Drug sensitivity assay (resazurin); format: cell-based; conditions: Trypanosoma brucei, read-out: EC50 AQP2-KO AVG, AQP2-KO / tbaqp2 null; 48 h drug + 24 h resazurin
TbAQP2/HAPT1 = TbAQP2/HAPT1 (Trypanosoma brucei brucei, UniProt Q6ZXT3); test: cell-based; format: cell-based
TbAQP2/HAPT1, sequence (Q6ZXT3 whole entry): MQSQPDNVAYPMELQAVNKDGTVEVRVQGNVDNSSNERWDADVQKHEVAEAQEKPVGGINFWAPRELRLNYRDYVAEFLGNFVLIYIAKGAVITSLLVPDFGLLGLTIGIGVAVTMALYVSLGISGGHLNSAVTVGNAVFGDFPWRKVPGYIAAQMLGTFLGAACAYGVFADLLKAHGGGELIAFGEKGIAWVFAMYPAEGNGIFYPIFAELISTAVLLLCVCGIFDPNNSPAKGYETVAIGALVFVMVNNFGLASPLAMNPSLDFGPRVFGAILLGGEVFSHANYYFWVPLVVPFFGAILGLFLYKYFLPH

s427WT bloodstream forms = format: cell-based, Trypanosoma brucei brucei; conditions: for 3H-penta: CCCP 20, gramicidin 10, Nigericin 20, NEM 1000; for Inhibition of pentamidine transport: after preincubation
[1] = tested on: T. b. brucei s427 WT (bloodstream forms); format: cell-based, Trypanosoma brucei brucei
[2] = tested on: T. b. brucei s427WT cells; format: cell-based, Trypanosoma brucei brucei
CRK12 RNAi cells = test: [3H]-suramin uptake after CRK12 RNAi induction (endocytosis defect); format: cell-based, Trypanosoma brucei
[3] = 25 nM [3H]-pentamidine, 1 mM adenosine, 3 min pre-incubation
[4] = CCCP 20, gramicidin 10, Nigericin 20, NEM 1000, Control -95.4

Molecule | EC50 (T. b. brucei 2T1) [nM] | EC50 (tbaqp2 null (AQP2-KO)) [nM] | ΔG0 (TbAQP2/HAPT1) [kcal/mol] | δ(ΔG^0) PMD (TbAQP2/HAPT1) [kcal/mol] | Ki (TbAQP2/HAPT1; Ki) [nM] | also measured
N=C(N)c1ccc(OCCCCCOc2ccc(C(=N)N)cn2)nc1 [RT-52] | 8.8 | 51 | -6.88 | 3.27 | 8840 ± 880 | 
Cl.Cl.N=C(N)c1ccc(OCCOc2ccc(C(=N)N)cc2)cc1.O.O (hydrate or solvate) [Ethamidine, 4,4'-(ethane-1,2-diylbis(oxy))dibenzimidamide dihydrochloride dihydrate] |  |  |  |  |  | melting point: 333 °C
N=C(N)c1ccc(SCCCCCSc2ccc(C(=N)N)cc2)cc1 [RT-48] | 24 | 165 | -7.77 | 2.39 | 2010 ± 860 | 
N=C(N)c1ccc(-c2ccc(-c3ccc(C(=N)N)cc3)o2)cc1 [DB75] | 50 | 20 | -6.02 | 4.13 | 38200 ± 10200 | Ki (TbAQP2/HAPT1; HAPT Ki AVG): 38300 nM
gramicidin |  |  |  |  |  | Effect of ionophore on pentamidine uptake (s427WT bloodstream forms; [3]): strongly inhibited; 3H-penta (s427WT bloodstream forms; Control = 100): 5.87; pentamidine uptake (s427WT bloodstream forms; Gramicidin 1, AVG): 23.3 percentage of the uninhibited control; pentamidine uptake (s427WT bloodstream forms; Gramicidin 5, AVG): 3.7 percentage of the uninhibited control; pentamidine uptake (s427WT bloodstream forms; Gramicidin 10, AVG): 5.9 percentage of the uninhibited control; PMF [1, 4]: -13.1
carbonyl cyanide m-chlorophenyl hydrazone [CCCP] |  |  |  |  |  | Effect of ionophore on pentamidine uptake (s427WT bloodstream forms; [3]): strongly inhibited; Inhibition of pentamidine transport (s427WT bloodstream forms; 1 µM): ~ 63%; Inhibition of pentamidine transport (s427WT bloodstream forms; 5 µM): ~ 90%; pentamidine uptake (s427WT bloodstream forms; CCCP 0.25, AVG): 106.6 percentage of the uninhibited control; pentamidine uptake (s427WT bloodstream forms; CCCP 0.25, single repeats): 101 percentage of the uninhibited control and 112.1 percentage of the uninhibited control; pentamidine uptake (s427WT bloodstream forms; CCCP 1, AVG): 36.9 percentage of the uninhibited control; pentamidine uptake (s427WT bloodstream forms; CCCP 1, single repeats): 34.6 percentage of the uninhibited control and 39.1 percentage of the uninhibited control; pentamidine uptake (s427WT bloodstream forms; CCCP 5, AVG): 10.3 percentage of the uninhibited control; pentamidine uptake (s427WT bloodstream forms; CCCP 10, AVG): 4.3 percentage of the uninhibited control; 3H-penta (s427WT bloodstream forms; Control = 100): 4.97*; pentamidine uptake (s427WT bloodstream forms; CCCP 20, AVG): 5.0 percentage of the uninhibited control; 3H-penta, outlier (s427WT bloodstream forms; CCCP 20, repeated in the column outlier, Control = 100): 4.97; PMF [1, 4]: -45.6; Inhibition of [3H]-suramin uptake (endocytosis) ([2]; 20 µM CCCP, pre-incubation 3 min, suramin accumulation over 10 min): 32.6%; suramin accumulated, % of no CCCP control ([2]; +CCCP, 10 minutes): 67.3935 % of no CCCP control; pmol suramin accumulated in 10 minutes (Average) ([2]; +CCCP, Average of experiments): 0.5894 pmol; pmol suramin accumulated in 10 minutes (AVG pmol) ([2]; +CCCP, single experiments): 0.4589 pmol and 0.5929 pmol and 0.7163 pmol
CO[C@@H]1C[C@@H](C[C@H]2CC[C@H](C)[C@H]([C@@H](C)C(=O)O)O2)O[C@]2(O[C@](C)([C@H]3CC[C@@](C)([C@@H]4O[C@@H]([C@H]5O[C@@](O)(CO)[C@H](C)C[C@@H]5C)C[C@@H]4C)O3)C[C@H]2C)[C@@H]1C [nigericin] |  |  |  |  |  | Effect of ionophore on pentamidine uptake (s427WT bloodstream forms): strongly inhibited; 3H-penta (s427WT bloodstream forms; Control = 100): 44.45; pentamidine uptake (s427WT bloodstream forms; Nigericin 1, AVG): 109.4 percentage of the uninhibited control; pentamidine uptake (s427WT bloodstream forms; Nigericin 1, single repeats): 108 percentage of the uninhibited control and 110.7 percentage of the uninhibited control; pentamidine uptake (s427WT bloodstream forms; Nigericin 5, AVG): 76.8 percentage of the uninhibited control; pentamidine uptake (s427WT bloodstream forms; Nigericin 10, AVG): 61.2 percentage of the uninhibited control; pentamidine uptake (s427WT bloodstream forms; Nigericin 10, single repeats): 63.9 percentage of the uninhibited control and 61 percentage of the uninhibited control and 53.2 percentage of the uninhibited control and 66.7 percentage of the uninhibited control; pentamidine uptake (s427WT bloodstream forms; Nigericin 20, AVG): 44.5 percentage of the uninhibited control; pentamidine uptake (s427WT bloodstream forms; Nigericin 20, single repeats): 41.7 percentage of the uninhibited control and 44.5 percentage of the uninhibited control and 42.9 percentage of the uninhibited control and 48.7 percentage of the uninhibited control; PMF [1]: -46.9
Cc1ccc(OCCCCCOc2ccc(C(=N)N)cc2)cc1 [CHI/1/72/1, 4-(5-(p-tolyloxy)pentyyloxy)benzimidamide hydrochloride hydrate] | 3230 | 2640 | -7.62 | 2.56 |  | Ki (TbAQP2/HAPT1; HAPT Ki AVG): 2600 nM; Ki (TbAQP2/HAPT1; HAPT Ki, AVG): 2620 nM
CNC(=N)c1ccc(OCCCCCOc2ccc(C(=N)NC)cc2)cc1 [RT-30] | 590 | 800 | -8.89 | 1.27 | 300 ± 70 | 
Cn1c(-c2ccc(-c3ccc(C(=N)N)cc3)o2)nc2ccccc21 (as salt: hydrochloride) [DB960, 4-(5-(1-methyl-1H-benzo[d]imidazol-2-yl)furan-2-yl) benzimidamide dihydrochloride] |  |  |  |  |  | melting point: > 290 °C (dec.)
N=C(N)c1ccc(OCCCCCOc2ccc(C(=N)N)cc2Cl)c(Cl)c1 [RT-43] | 180 | 235 | -8.58 | 1.58 | 510 ± 150 | δ(ΔG0) (TbAQP2/HAPT1): 1.59 kcal/mol
CCN1C(=O)C=CC1=O [NEM, N-ethylmaleimide] |  |  |  |  |  | pentamidine uptake (s427WT bloodstream forms; NEM 1000, AVG): 60.1 percentage of the uninhibited control; pentamidine uptake (s427WT bloodstream forms; NEM 1000, single repeats): 56.77 percentage of the uninhibited control and 56.26 percentage of the uninhibited control and 67.13 percentage of the uninhibited control; PMF [1]: -39.3
Cl.N=C(N)c1ccc(OCCCCOc2ccccc2)cc1.O (hydrate or solvate) [CHI/1/69/1, 4-(4-Phenoxybutoxy)benzimidamide hydrochloride hydrate] |  |  |  |  |  | melting point: 134 to 135 °C
N=C(N)c1ccc(NCCCCCNc2ccc(C(=N)N)cc2)cc1 [RT-50] | 4.1 | 72 | -7.1 | 3.08 | 6270 ± 1300 | 
Cl.Cl.c1cc(-c2ccc(-c3ccc(CCC4=NCCN4)cc3)s2)ccc1CCC1=NCCN1 [DB1064, 2,5-bis(4-(2-(4,5-dihydro-1H-imidazol-2-yl)ethyl)phenyl) thiophene dihydrochloride] |  |  | -7.53 | 2.63 | 3000 ± 820 | melting point: > 225 °C (dec.)
N=C(N)c1ccc(OCCCCCOc2ccc(N)cc2)cc1 [RT-36] | 25700 | 23000 | -8.68 | 1.48 | 430 ± 70 | 
COc1ccc(-c2ccc(-c3ccc(C(=N)N)cc3)o2)cc1 (as salt: hydrochloride) [DB607, 4-(5-(4-methoxyphenyl)furan-2-yl) benzimidamide hydrochloride] |  |  |  |  |  | melting point: 250 to 252 °C (dec.)
c1cc(C2=NCCN2)ccc1OCCCCCOc1ccc(C2=NCCN2)cc1 [RT-32] | 400 | 500 | -8.72 | 1.43 | 400 ± 80 | 
Cc1ccc(C(=O)Nc2ccc(S(=O)(=O)O)c3cc(S(=O)(=O)O)cc(S(=O)(=O)O)c23)cc1NC(=O)c1cccc(NC(=O)Nc2cccc(C(=O)Nc3cc(C(=O)Nc4ccc(S(=O)(=O)O)c5cc(S(=O)(=O)O)cc(S(=O)(=O)O)c45)ccc3C)c2)c1 [Suramin] |  |  |  |  |  | suramin uptake rate, CRK+tet (CRK12 RNAi cells; AVERAGE of the experiments): 0.000346 pmol/1E7 cells/s-1; suramin uptake rate, CRK+tet (CRK12 RNAi cells; single experiments): 0.0003125 pmol/1E7 cells/s-1 and 0.0002775 pmol/1E7 cells/s-1 and 0.0003952 pmol/1E7 cells/s-1 and 0.0004343 pmol/1E7 cells/s-1; suramin uptake rate, CRK-tet (CRK12 RNAi cells; AVERAGE of the experiments): 0.000523 pmol/1E7 cells/s-1; suramin uptake rate, CRK-tet (CRK12 RNAi cells; single experiments): 0.0004923 pmol/1E7 cells/s-1 and 0.0003572 pmol/1E7 cells/s-1 and 0.000635 pmol/1E7 cells/s-1 and 0.0006387 pmol/1E7 cells/s-1; Reduction of [3H]-suramin uptake (CRK12 RNAi cells; twelve hours after CRK12 RNAi induction): 33%
N=C(N)c1ccc(-c2ccc(-c3ccc(C(=N)N)cc3)[se]2)cc1 [DB1213] | 142 | 78 | -8.39 | 1.79 | 720 ± 170 | 
